Laboratory results: patent US20200337337A1, “ANIMAL FEED COMPOSITIONS COMPRISING MURAMIDASE AND USES THEREOF” (DSM IP ASSETS B.V., priority 2017, published 2020)
Marks after values point to notes of the source that are not given here.

Test system: male broiler chickens (Cobb 500)
Experiment: Experiment in vivo 1: apparent ileal digestibility of crude protein, fat and energy
Details: supplemented feed: B Zn-Bacitracin 50 mg/kg; C Muramidase 40 000 U/g; Cobb 500 broilers
Description: Day-old male broiler chickens (Cobb 500) were supplied by a commercial hatchery (Joseph Grelier S. A., Elevage avicole de la Bohadière, F-49290 Saint-Laurent de la Plaine, France).
On the day of arrival (day 1), the chickens were divided by weight into groups of 18 birds. Each group was placed in one floor-pen littered with wood shavings and allocated to one of the different treatments.
Each treatment was replicated with 12 groups. The chickens were housed in an environmentally controlled room. The room temperature was adapted to the age of the birds. In the first few days an additional infra-red electric heating lamp was placed in each pen. Moreover, in the first week feed was offered to the birds as crumbled pellets, afterwards as pelleted feed. The birds had free access to feed and water.
The experimental diets (Starter and Grower) were based on soybean meal, wheat and rye (12%) as main ingredients (Table 2). The diets were formulated to contain 210 g crude protein and 12.5 MJ/kg MEN for the starter period and 190 g crude protein and 12.9 MJ/kg MEN for the grower period.
The diets were fed either unsupplemented (negative control) or supplemented with Muramidase and Zn-Bacitracin as follows:
Appropriate amount of the solid product (Zn-Bacitracin) was mixed with a small quantity of the basal feed as a premix which was then added to the feed to get the final concentration, according to the treatments. After mixing the feed was pelleted (3×25 mm) at about 70° C.
Appropriate amount of the liquid preparations of Muramidase was diluted in water and sprayed onto the respective pelleted feed to get the final concentrations in the feed corresponding to the different treatments. For procedural balance of all treatments the same volume of water were also sprayed onto the pellets of the control diets. […]
Energy determinations were performed using an IKA®-Werke calorimeter (C 2000 basic). TiO2 concentration in feed and digesta were determined by Induction Coupled Plasma (ICP) according to DIN EN ISO 11885:1997 (DIN EN ISO 1998) after H2SO4/Na2SO4 mineralization. […]

With Zn-Bacitracin the “Apparent ileal digestibility Energy (%)” value was 90.1^a %, the “Apparent ileal digestibility Fat (%)” value was 82.2^a % and the “Apparent ileal digestibility Protein (%)” value was 76.3^a %.
